Measurements as given in ChEMBL document CHEMBL1148201, “Penasulfate A, a new alpha-glucosidase inhibitor from a marine sponge Penares sp” (J Nat Prod, 2004).

Tests used:
[1] = Inhibition of yeast alpha-glucosidase G7256; parameters: species or system Saccharomyces cerevisiae
[2] = Inhibition of Saccharomyces cerevisiae recombinant alpha-glucosidase G0660

Row | Structure (SMILES) | IC50 [1] [µg/mL] | IC50 [2] [µg/mL]
1 | CCC[C@H]1CCCCCCCCC[C@H](OS(=O)(=O)[O-])[C@H](OS(=O)(=O)[O-])[C@@H](OS(=O)(=O)[O-])CCCCCCCCCCCCCC(=O)N2CCC[C@H]2C(=O)O1.[Na+].[Na+].[Na+] [PENAROLIDE SULFATE A2] | 1.5 | 
2 | CCCCCC[C@H](C)CCCCCC[C@H](OS(=O)(=O)[O-])[C@@H](CCCCCCCCCCCCC(=O)N1CCCC[C@@H]1C(=O)OC)OS(=O)(=O)[O-].[Na+].[Na+] [PENASULFATE A] |  | 3.5
3 | CCCC[C@H]1CCCCCCCCC[C@H](OS(=O)(=O)[O-])[C@H](OS(=O)(=O)[O-])[C@@H](OS(=O)(=O)[O-])CCCCCCCCCCCCC(=O)N2CCC[C@H]2C(=O)O1.[Na+].[Na+].[Na+] [PENAROLIDE SULFATE A1] | 1.2 | 
